Results reported in patent US20070015770A1 (priority 2003, published 2007).
Read-outs that look alike come from different tables or passages of the source.

Test system: Pyricularia oryzae
Type: in vivo
Settings: individual active compound, rice seedlings Tai-Nong 67, protective spray, evaluated 6 days after inoculation

Row | Structure (SMILES) | Efficacy in % of the untreated control (1 ppm in the spray liquor) | Efficacy in % of the untreated control (4 ppm in the spray liquor)
1 | CC1CCN(c2c(-c3c(F)cc(F)cc3F)c(Cl)nc3ncnn23)CC1 [I, 5-chloro-7-(4-methylpiperidin-1-yl)-6-(2,4,6-trifluorophenyl)-[1,2,4]triazolo[1,5-a]pyrimidine] | 16% | 28%
2 | COCC(=O)N(c1c(C)cccc1C)[C@H](C)C(=O)OC [II (metalaxyl-M), methyl N-(methoxyacetyl)-N-(2,6-xylyl)-D-alaninate] | – | 0%
3 | CC1CCN(c2c(-c3c(F)cccc3Cl)c(Cl)nc3ncnn23)CC1 [comparative compound A] | 0% | 4%
4 | C[C@H](Nc1c(-c2c(F)cc(F)cc2F)c(Cl)nc2ncnn12)C(F)(F)F [comparative compound B] | 4% | 40%
